From PubChem BioAssay (NCI)
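All cell lines were grown in 96-well plates and treated with compound for 48 hours. Abbreviation: GI50, concentration required for 50% inhibition of growth. TGI: concentration producing complete growth inhibition.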

Key:
Experiment in all cases: NCI-60 cell line screen, 48 h
HCC-2998 colon = tested on: HCC-2998 colon
UO-31 renal = tested on: UO-31 renal
UACC-257 melanoma = tested on: UACC-257 melanoma
OVCAR-5 ovarian = tested on: OVCAR-5 ovarian
SK-MEL-28 melanoma = tested on: SK-MEL-28 melanoma
NCI-H460 lung = tested on: NCI-H460 lung
NCI-H522 lung = tested on: NCI-H522 lung
HCT-116 colon = tested on: HCT-116 colon
MALME-3M melanoma = tested on: MALME-3M melanoma
NCI/ADR-RES ovarian = tested on: NCI/ADR-RES ovarian
SR leukemia = tested on: SR leukemia
SK-OV-3 ovarian = tested on: SK-OV-3 ovarian
HL-60(TB) leukemia = tested on: HL-60(TB) leukemia
NCI-H23 lung = tested on: NCI-H23 lung
CAKI-1 renal = tested on: CAKI-1 renal
K-562 leukemia = tested on: K-562 leukemia
SW-620 colon = tested on: SW-620 colon
HT29 colon = tested on: HT29 colon
M14 melanoma = tested on: M14 melanoma
SF-539 CNS = tested on: SF-539 CNS
COLO 205 colon = tested on: COLO 205 colon
HCT-15 colon = tested on: HCT-15 colon
SNB-19 CNS = tested on: SNB-19 CNS
MCF7 breast = tested on: MCF7 breast
SF-268 CNS = tested on: SF-268 CNS
SNB-75 CNS = tested on: SNB-75 CNS
MOLT-4 leukemia = tested on: MOLT-4 leukemia
TK-10 renal = tested on: TK-10 renal
OVCAR-3 ovarian = tested on: OVCAR-3 ovarian
HOP-62 NSCLC = tested on: HOP-62 NSCLC
MDA-MB-231 breast = tested on: MDA-MB-231 breast
SN12C renal = tested on: SN12C renal
HS 578T breast = tested on: HS 578T breast
U251 CNS = tested on: U251 CNS
SK-MEL-2 melanoma = tested on: SK-MEL-2 melanoma
LOX IMVI melanoma = tested on: LOX IMVI melanoma
MDA-MB-435 = tested on: MDA-MB-435
EKVX NSCLC = tested on: EKVX NSCLC
ACHN renal = tested on: ACHN renal
SK-MEL-5 melanoma = tested on: SK-MEL-5 melanoma
T-47D breast = tested on: T-47D breast
OVCAR-4 ovarian = tested on: OVCAR-4 ovarian
NCI-H226 lung = tested on: NCI-H226 lung
RPMI-8226 leukemia = tested on: RPMI-8226 leukemia
UACC-62 melanoma = tested on: UACC-62 melanoma
KM12 colon = tested on: KM12 colon
786-0 renal = tested on: 786-0 renal
OVCAR-8 ovarian = tested on: OVCAR-8 ovarian
A549 NSCLC = tested on: A549 NSCLC
SF-295 CNS = tested on: SF-295 CNS
PC-3 prostate = tested on: PC-3 prostate
DU-145 prostate = tested on: DU-145 prostate
A498 renal = tested on: A498 renal
IGROV1 ovarian = tested on: IGROV1 ovarian
RXF 393 renal = tested on: RXF 393 renal
HOP-92 NSCLC = tested on: HOP-92 NSCLC
CCRF-CEM leukemia = tested on: CCRF-CEM leukemia

## COc1cc2c(/C=C3/C(=O)Nc4ccc(O)cc43)c(Cl)n(Cc3cc(OC)c(OC)c(OC)c3)c2cc1C
HCC-2998 colon
  GI50: 3.3 µM
  TGI: > 36.1 µM
UO-31 renal
  GI50: 3.25 µM
  TGI: > 74.4 µM
UACC-257 melanoma
  GI50: 3.43 µM
  TGI: > 47.6 µM
OVCAR-5 ovarian
  GI50: 15.6 µM
  TGI: > 100 µM
SK-MEL-28 melanoma
  GI50: 0.878 µM
  TGI: 5.94 µM
NCI-H460 lung
  GI50: 1.86 µM
  TGI: > 32.7 µM
NCI-H522 lung
  GI50: 0.633 µM
  TGI: 4.45 µM
HCT-116 colon
  GI50: 2.18 µM
  TGI: > 33.2 µM
MALME-3M melanoma
  GI50: 0.494 µM
  TGI: 3.91 µM
NCI/ADR-RES ovarian
  GI50: 3.41 µM
  TGI: > 100 µM
SR leukemia
  GI50: 0.329 µM
SK-OV-3 ovarian
  GI50: 4.06 µM
  TGI: > 75 µM
HL-60(TB) leukemia
  GI50: 1.97 µM
  TGI: 10.3 µM
NCI-H23 lung
  GI50: 3.54 µM
  TGI: > 100 µM
CAKI-1 renal
  GI50: 2.25 µM
  TGI: 15 µM
K-562 leukemia
  GI50: 2.17 µM
  TGI: > 31.6 µM
SW-620 colon
  GI50: 3.28 µM
  TGI: > 100 µM
HT29 colon
  GI50: 1.71 µM
  TGI: > 55.9 µM
M14 melanoma
  GI50: 1.93 µM
  TGI: 51 µM
SF-539 CNS
  GI50: 2.24 µM
  TGI: > 31.1 µM
COLO 205 colon
  GI50: 2.61 µM
  TGI: > 100 µM
HCT-15 colon
  GI50: 1.81 µM
  TGI: > 34.1 µM
SNB-19 CNS
  GI50: 3.32 µM
  TGI: > 100 µM
MCF7 breast
  GI50: 0.776 µM
  TGI: 19.7 µM
SF-268 CNS
  GI50: 4.64 µM
  TGI: > 100 µM
SNB-75 CNS
  GI50: 1.61 µM
  TGI: > 59.8 µM
MOLT-4 leukemia
  GI50: 2.34 µM
  TGI: > 21.9 µM
TK-10 renal
  GI50: 3.25 µM
  TGI: > 24.6 µM
OVCAR-3 ovarian
  GI50: 1.32 µM
  TGI: > 20.8 µM
HOP-62 NSCLC
  GI50: 1.65 µM
  TGI: 29.4 µM
MDA-MB-231 breast
  GI50: 4.75 µM
  TGI: > 100 µM
SN12C renal
  GI50: 4.14 µM
  TGI: > 44 µM
HS 578T breast
  GI50: 2.37 µM
  TGI: > 30.5 µM
U251 CNS
  GI50: 2.49 µM
  TGI: > 28.3 µM
SK-MEL-2 melanoma
  GI50: 1.93 µM
  TGI: 13.7 µM
LOX IMVI melanoma
  GI50: 2.05 µM
  TGI: 16.3 µM
MDA-MB-435
  GI50: 0.328 µM
EKVX NSCLC
  GI50: 2.69 µM
  TGI: > 38.5 µM
ACHN renal
  GI50: 3.43 µM
  TGI: > 100 µM
SK-MEL-5 melanoma
  GI50: 1.02 µM
  TGI: 2.71 µM
T-47D breast
  GI50: 5.55 µM
  TGI: > 70.8 µM
OVCAR-4 ovarian
  GI50: 4.03 µM
  TGI: > 100 µM
NCI-H226 lung
  GI50: 2.88 µM
  TGI: > 27 µM
RPMI-8226 leukemia
  GI50: 2.12 µM
  TGI: > 100 µM
UACC-62 melanoma
  GI50: 1.58 µM
  TGI: 8.56 µM
KM12 colon
  GI50: 1.63 µM
  TGI: > 30.5 µM
786-0 renal
  GI50: 1.6 µM
  TGI: > 29.3 µM
OVCAR-8 ovarian
  GI50: 3.05 µM
  TGI: > 26.5 µM
A549 NSCLC
  GI50: 3.45 µM
  TGI: > 100 µM
SF-295 CNS
  GI50: 0.795 µM
  TGI: 5.67 µM
PC-3 prostate
  GI50: 1.56 µM
  TGI: > 83.6 µM
DU-145 prostate
  GI50: 3.42 µM
  TGI: > 30.3 µM
A498 renal
  GI50: 3.09 µM
  TGI: > 30.2 µM
IGROV1 ovarian
  TGI: 5.75 µM
RXF 393 renal
  GI50: 1.37 µM
  TGI: 6.4 µM
HOP-92 NSCLC
  GI50: 3.18 µM
  TGI: 21.9 µM
CCRF-CEM leukemia
  GI50: 1.38 µM
  TGI: 10.9 µM

## C/C(CC(C)(C)N1CC1)=N\NC(=O)Nc1cccc2ccccc12
HCC-2998 colon
  GI50: 4.81 µM
  TGI: 17 µM
UO-31 renal
  GI50: 2.58 µM
  TGI: 12.2 µM
UACC-257 melanoma
  GI50: 4.09 µM
  TGI: 16.2 µM
OVCAR-5 ovarian
  GI50: 6.04 µM
  TGI: 23 µM
SK-MEL-28 melanoma
  GI50: 7.07 µM
  TGI: 19.8 µM
NCI-H460 lung
  GI50: 2.86 µM
  TGI: 10 µM
NCI-H522 lung
  GI50: 2.04 µM
  TGI: 5.36 µM
HCT-116 colon
  GI50: 3.32 µM
  TGI: 11.5 µM
MALME-3M melanoma
  GI50: 4.08 µM
  TGI: 18.8 µM
NCI/ADR-RES ovarian
  GI50: 3.67 µM
  TGI: 22.4 µM
SR leukemia
  GI50: 2.02 µM
  TGI: 6.13 µM
HL-60(TB) leukemia
  GI50: 2.04 µM
  TGI: 5 µM
NCI-H23 lung
  GI50: 3.78 µM
  TGI: 21.3 µM
CAKI-1 renal
  GI50: 3.73 µM
  TGI: 13.2 µM
K-562 leukemia
  GI50: 3.56 µM
  TGI: 24.5 µM
SW-620 colon
  GI50: 2.89 µM
  TGI: 12.4 µM
HT29 colon
  GI50: 3.5 µM
  TGI: 13.7 µM
M14 melanoma
  GI50: 4.25 µM
  TGI: 15.2 µM
SF-539 CNS
  GI50: 3.35 µM
  TGI: 15.7 µM
COLO 205 colon
  GI50: 2.39 µM
  TGI: 7.19 µM
HCT-15 colon
  GI50: 3.24 µM
  TGI: 17.4 µM
SNB-19 CNS
  GI50: 5.14 µM
  TGI: 18.1 µM
MCF7 breast
  GI50: 2.42 µM
  TGI: 11.2 µM
SF-268 CNS
  GI50: 3.72 µM
  TGI: 16.2 µM
SNB-75 CNS
  GI50: 2.62 µM
  TGI: 13.8 µM
MOLT-4 leukemia
  GI50: 2.59 µM
  TGI: 6.29 µM
TK-10 renal
  GI50: 2.81 µM
  TGI: 7.23 µM
OVCAR-3 ovarian
  GI50: 2.32 µM
  TGI: 5.92 µM
HOP-62 NSCLC
  GI50: 4.12 µM
  TGI: 15.8 µM
MDA-MB-231 breast
  GI50: 3.25 µM
  TGI: 9.42 µM
SN12C renal
  GI50: 5.76 µM
  TGI: 77.9 µM
HS 578T breast
  GI50: 2.45 µM
  TGI: 24.7 µM
U251 CNS
  GI50: 3.52 µM
  TGI: 14.4 µM
SK-MEL-2 melanoma
  GI50: 2.24 µM
  TGI: 5.45 µM
LOX IMVI melanoma
  GI50: 3.13 µM
  TGI: 13.3 µM
MDA-MB-435
  GI50: 6.19 µM
  TGI: 19.9 µM
EKVX NSCLC
  GI50: 5.84 µM
  TGI: 19.9 µM
ACHN renal
  GI50: 2.99 µM
  TGI: 11.8 µM
SK-MEL-5 melanoma
  GI50: 3.19 µM
  TGI: 12.2 µM
T-47D breast
  GI50: 4.35 µM
  TGI: 17.3 µM
OVCAR-4 ovarian
  GI50: 4.23 µM
  TGI: 15.9 µM
NCI-H226 lung
  GI50: 3.51 µM
  TGI: 14.9 µM
RPMI-8226 leukemia
  GI50: 2.71 µM
  TGI: 8.74 µM
UACC-62 melanoma
  GI50: 4.06 µM
  TGI: 15.8 µM
KM12 colon
  GI50: 4.13 µM
  TGI: 15.7 µM
786-0 renal
  GI50: 3.04 µM
  TGI: 9.87 µM
OVCAR-8 ovarian
  GI50: 2.64 µM
  TGI: 13.4 µM
A549 NSCLC
  GI50: 3.53 µM
  TGI: 14.2 µM
SF-295 CNS
  GI50: 7.01 µM
  TGI: 35.5 µM
PC-3 prostate
  GI50: 5.32 µM
  TGI: 23.2 µM
DU-145 prostate
  GI50: 3.07 µM
  TGI: 9.85 µM
A498 renal
  GI50: 2.55 µM
  TGI: 9.5 µM
IGROV1 ovarian
  GI50: 4.19 µM
  TGI: 36.9 µM
RXF 393 renal
  GI50: 2.08 µM
  TGI: 5.46 µM
HOP-92 NSCLC
  GI50: 1.65 µM
  TGI: 6.99 µM
CCRF-CEM leukemia
  GI50: 2.37 µM
  TGI: 20.6 µM
